Results taken from ChEMBL document CHEMBL4000157, “Total Synthesis of (±)-Kuwanol E” (J Nat Prod, 2016).

Assay: Inhibition of wild type recombinant Mycobacterium tuberculosis PTPB using p-nitrophenyl phosphate as substrate preincubated for 10 mins followed by substrate addition measured for 10 mins by UV-VIS spectrophotometer

CC(C)=CCc1c(O)ccc(C(=O)[C@@H]2[C@@H](c3ccc(O)cc3O)CC(C)=C[C@H]2c2c(O)cc(/C=C/c3ccc(O)cc3O)cc2O)c1O showed a Ki of 1600 nM.
